Test results as given in patent publication US20060069132A1, “Azolecarboxamide herbicides” (priority 2004, published 2006).

Key:
barnyardgrass [1] = assay: Test B pre-/postemergence herbicide test; type: in vivo, Echinochloa crus-galli; settings: for Barnyardgrass plant response rating: postemergence, visual rating, scale 0 (no effect) to 100 (complete control)
Method in brief: (§1)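 Flooded paddy rice and barnyardgrass were treated at the 2-leaf stage; upland plantings received compound either on sown seed or on 1- to 4-leaf seedlings. All were kept 13–15 days in a greenhouse and scored visually, 0–100, relative to untreated plants.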

Surinam grass = assay: Test B pre-/postemergence herbicide test; type: in vivo, Urochloa decumbens; settings: for Surinam Grass plant response rating: postemergence, visual rating, scale 0 (no effect) to 100 (complete control)
Method in brief: (§2)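 Evaluation is visual, comparing treated with control plants on a scale where 0 means no effect and 100 means full control. Treatments were preemergence, or postemergence on seedlings 2–18 cm tall, and held 13–15 days in the greenhouse.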

cocklebur = assay: Test B pre-/postemergence herbicide test; type: in vivo, Xanthium strumarium; settings: for Cocklebur plant response rating: postemergence, visual rating, scale 0 (no effect) to 100 (complete control)
Method in brief: as §1

corn = assay: Test B pre-/postemergence herbicide test; type: in vivo, Zea mays; settings: for Corn plant response rating: postemergence, visual rating, scale 0 (no effect) to 100 (complete control)
Method in brief: as §2

large crabgrass = assay: Test B pre-/postemergence herbicide test; type: in vivo, Digitaria sanguinalis; settings: for Crabgrass, Large plant response rating: postemergence, visual rating, scale 0 (no effect) to 100 (complete control)
Method in brief: as §2

giant foxtail = assay: Test B pre-/postemergence herbicide test; type: in vivo, Setaria faberi; settings: for Foxtail, Giant plant response rating: postemergence, visual rating, scale 0 (no effect) to 100 (complete control)
Method in brief: as §2

lambsquarters = assay: Test B pre-/postemergence herbicide test; type: in vivo, Chenopodium album; settings: for Lambsquarters plant response rating: postemergence, visual rating, scale 0 (no effect) to 100 (complete control)
Method in brief: as §2

morningglory = assay: Test B pre-/postemergence herbicide test; type: in vivo, Ipomoea coccinea; settings: for Morningglory plant response rating: postemergence, visual rating, scale 0 (no effect) to 100 (complete control)
Method in brief: as §1

pigweed = assay: Test B pre-/postemergence herbicide test; type: in vivo, Amaranthus retroflexus; settings: for Pigweed plant response rating: postemergence, visual rating, scale 0 (no effect) to 100 (complete control)
Method in brief: as §2

rice [2] = assay: Test B pre-/postemergence herbicide test; type: in vivo, Oryza sativa; settings: preemergence
Method in brief: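 Plants compared with untreated controls 13–15 days post-treatment and given a visual 0–100 injury score. Applications: preemergence to seeds; postemergence at 1- to 4-leaf (2–18 cm); paddy species flooded, 2-leaf stage. Vehicle non-phytotoxic, surfactant included.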

velvetleaf = assay: Test B pre-/postemergence herbicide test; type: in vivo, Abutilon theophrasti; settings: for Velvetleaf plant response rating: postemergence, visual rating, scale 0 (no effect) to 100 (complete control)
Method in brief: as §2

blackgrass = assay: Test B postemergence herbicide test; type: in vivo, Alopecurus myosuroides; settings: postemergence, visual rating, scale 0 (no effect) to 100 (complete control)
Method in brief: (§3)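 After treating 2-leaf paddy plants or 2–18 cm postemergence plants (1 to 4 leaves) with formulated chemical, researchers kept them in a greenhouse for 13–15 days. Effects were judged visually versus controls: 0 indicates none, 100 total control.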

wheat = assay: Test B postemergence herbicide test; type: in vivo, Triticum aestivum; parameters: key to Wheat plant response rating: 0 = no effect, 100 = complete control; settings: postemergence, visual rating, scale 0 (no effect) to 100 (complete control)
Method in brief: (§4)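 Plants grow to 1- to 4-leaf stage (2–18 cm) for postemergence spraying, or to 2-leaf stage for the paddy test. Formulated compound is applied. Greenhouse holding lasts 13–15 days. Response is scored visually relative to controls, 0 no effect to 100 complete control; a dash means no result.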

wild oat = assay: Test B postemergence herbicide test; type: in vivo, Avena fatua; settings: postemergence, visual rating, scale 0 (no effect) to 100 (complete control)
Method in brief: as §4

rice [3] = assay: Test B flooded paddy test; type: in vivo, Oryza sativa; settings: 1000 g ai/ha, visual rating, scale 0 to 100 (0 no effect, 100 complete control), 13 to 15 days
Method in brief: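 Each value is a visual 0–100 response rating taken against controls 13 to 15 days after treatment in the greenhouse. Plants received formulated chemical postemergence at the 1- to 4-leaf stage or, in flooded paddy, at the 2-leaf stage.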

[4] = system: small flower umbrella sedge; assay: Test B flooded paddy test; type: in vivo, Cyperus difformis; settings: 1000 g ai/ha, visual rating, scale 0 to 100 (0 no effect, 100 complete control), 13 to 15 days
Method in brief: as §3

ducksalad [5] = assay: Test B flooded paddy test; type: in vivo, Heteranthera limosa; settings: 1000 g ai/ha, visual rating, scale 0 to 100 (0 no effect, 100 complete control), 13 to 15 days
Method in brief: as §3

barnyardgrass [6] = assay: Test B flooded paddy test; type: in vivo, Echinochloa crus-galli; settings: 1000 g ai/ha, visual rating, scale 0 to 100 (0 no effect, 100 complete control), 13 to 15 days
Method in brief: as §3

rice [7] = assay: Test C flooded paddy test; type: in vivo, Oryza sativa
Method in brief: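 Postemergence sprays applied to plants 2 to 18 cm tall (1- to 4-leaf stage); paddy species grown to 2-leaf stage under flooding. After 12 to 14 days in greenhouse, visual rating versus untreated controls on 0–100 scale (0 no effect, 100 complete control).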

[8] = system: smallflower umbrella sedge; assay: Test C flooded paddy test; type: in vivo, Cyperus difformis
ducksalad [9] = assay: Test C flooded paddy test; type: in vivo, Heteranthera limosa
barnyardgrass [10] = assay: Test C flooded paddy test; type: in vivo, Echinochloa crus-galli
Method in brief: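 Visual rating, 0 (no effect) to 100 (complete control), vs. controls at 12–14 d in greenhouse. Postemergence: 1–4-leaf plants, 2–18 cm. Paddy: flooded, barnyardgrass at 2-leaf stage.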

[11] = 125 g ai/ha, 0 = no effect, 100 = complete control, preemergence
[12] = 500 g ai/ha, visual rating 0-100, 0 no effect, 100 complete control, preemergence
[13] = 62 g ai/ha, scale 0 to 100 (0 no effect, 100 complete control)
[14] = 125 g ai/ha, scale 0 to 100 (0 no effect, 100 complete control)
[15] = 250 g ai/ha, scale of 0 to 100, 0 is no effect, 100 is complete control
[16] = 500 g ai/ha, visual rating after 12 to 14 days, scale 0 to 100 (0 no effect, 100 complete control)

CCNC(=O)c1cccc(NC(=O)c2cn(C(C)(C)C)nc2CC)c1 [Compound 181]
Barnyardgrass plant response rating (0 to 100 scale) (barnyardgrass [1]; [11]): 30
Plant response rating, Barnyardgrass (barnyardgrass [1]; [12]): 90
Barnyardgrass plant response rating (barnyardgrass [1]; 125 g ai/ha): 0
Barnyardgrass plant response rating (barnyardgrass [1]; 500 g ai/ha): 10
Surinam Grass plant response rating (0 to 100 scale) (Surinam grass; [11]): 30
Plant response rating, Surinam Grass (Surinam grass; [12]): 70
Surinam Grass plant response rating (Surinam grass; 125 g ai/ha): 20
Surinam Grass plant response rating (Surinam grass; 500 g ai/ha): 20
Cocklebur plant response rating (0 to 100 scale) (cocklebur; [11]): 10
Plant response rating, Cocklebur (cocklebur; [12]): 20
Cocklebur plant response rating (cocklebur; 125 g ai/ha): 20
Cocklebur plant response rating (cocklebur; 500 g ai/ha): 70
Corn plant response rating (0 to 100 scale) (corn; [11]): 0
Plant response rating, Corn (corn; [12]): 40
Corn plant response rating (corn; 125 g ai/ha): 20
Corn plant response rating (corn; 500 g ai/ha): 20
Crabgrass, Large plant response rating (0 to 100 scale) (large crabgrass; [11]): 50
Plant response rating, Crabgrass, Large (large crabgrass; [12]): 100
Crabgrass, Large plant response rating (large crabgrass; 125 g ai/ha): 10
Crabgrass, Large plant response rating (large crabgrass; 500 g ai/ha): 20
Foxtail, Giant plant response rating (0 to 100 scale) (giant foxtail; [11]): 20
Plant response rating, Foxtail, Giant (giant foxtail; [12]): 100
Foxtail, Giant plant response rating (giant foxtail; 125 g ai/ha): 20
Foxtail, Giant plant response rating (giant foxtail; 500 g ai/ha): 20
Lambsquarters plant response rating (0 to 100 scale) (lambsquarters; [11]): 50
Plant response rating, Lambsquarters (lambsquarters; [12]): 100
Lambsquarters plant response rating (lambsquarters; 125 g ai/ha): 70
Lambsquarters plant response rating (lambsquarters; 500 g ai/ha): 90
Morningglory plant response rating (0 to 100 scale) (morningglory; [11]): 0
Plant response rating, Morningglory (morningglory; [12]): 20
Morningglory plant response rating (morningglory; 125 g ai/ha): 20
Morningglory plant response rating (morningglory; 500 g ai/ha): 20
Pigweed plant response rating (0 to 100 scale) (pigweed; [11]): 30
Plant response rating, Pigweed (pigweed; [12]): 100
Pigweed plant response rating (pigweed; 125 g ai/ha): 40
Pigweed plant response rating (pigweed; 500 g ai/ha): 90
Rice plant response rating (0 to 100 scale) (rice [2]; 125 g ai/ha, 0 = no effect, 100 = complete control): 40
Plant response rating, Rice (rice [2]; 500 g ai/ha, visual rating 0-100, 0 no effect, 100 complete control): 70
Velvetleaf plant response rating (0 to 100 scale) (velvetleaf; [11]): 0
Plant response rating, Velvetleaf (velvetleaf; [12]): 10
Velvetleaf plant response rating (velvetleaf; 125 g ai/ha): 10
Velvetleaf plant response rating (velvetleaf; 500 g ai/ha): 20
Blackgrass plant response rating (blackgrass; 125 g ai/ha): 0
Blackgrass plant response rating (blackgrass; 500 g ai/ha): 10
Wheat plant response rating (wheat; 125 g ai/ha): 0
Wheat plant response rating (wheat; 500 g ai/ha): 0
Oat, Wild plant response rating (wild oat; 125 g ai/ha): 20
Oat, Wild plant response rating (wild oat; 500 g ai/ha): 30
Rice plant response rating (rice [3]): 80
Sedge, Umbrella plant response rating [4]: 80
Ducksalad plant response rating (ducksalad [5]): 90
Barnyardgrass plant response rating (barnyardgrass [6]): 80
Rice plant response rating (rice [7]; [13]): 0
Rice plant response rating (rice [7]; [14]): 0
Rice plant response rating (rice [7]; [15]): 0
Plant response rating, Rice (rice [7]; [16]): 0
Sedge, Umbrella plant response rating [8, 13]: 10
Sedge, Umbrella plant response rating [8, 14]: 20
Sedge, Umbrella plant response rating [8, 15]: 80
Plant response rating, Sedge, Umbrella [8, 16]: 85
Ducksalad plant response rating (ducksalad [9]; [13]): 0
Ducksalad plant response rating (ducksalad [9]; [14]): 0
Ducksalad plant response rating (ducksalad [9]; [15]): 0
Plant response rating, Ducksalad (ducksalad [9]; [16]): 80
Barnyardgrass plant response rating (barnyardgrass [10]; [13]): 0
Barnyardgrass plant response rating (barnyardgrass [10]; 125 g ai/ha, scale of 0 to 100, 0 is no effect, 100 is complete control): 0
Barnyardgrass plant response rating (barnyardgrass [10]; [15]): 0
Plant response rating, Barnyardgrass (barnyardgrass [10]; [16]): 0
